Assay results as given in publication PMC7982521, “Studies on the Changes of Pharmacokinetics Behaviors of Phytochemicals and the Influence on Endogenous Metabolites After the Combination of Radix Bupleuri and Radix Paeoniae Alba Based on Multi-Component Pharmacokinetics and Metabolomics” (Frontiers in Pharmacology, 2021).

Test: Multi-component pharmacokinetics in rat plasma after oral administration of RB, RPA or RB-RPA extracts (UPLC-HRMS, non-compartmental analysis)
Type: in vivo, Sprague-Dawley rats
Details: rat plasma, mean ± SD, n = 7
Description: (Beijing, China, No. SCXK2018-0011). […] All rats were free to access the water and food until 12 h before the experiment. The animal study was reviewed and approved by the Experimental Animal Ethical Committee of Modern Research Center for Traditional Chinese Medicine, Shanxi University (animal ethic approval number: SXULL2018018), and all experimental procedures were carried out in accordance with the NIH Guide for the Care and Use of Laboratory Animals. After one week of adaptation, twenty-one rats were divided into three groups randomly, with seven rats in each group: 1) RPA group, were oral administration of Radix Paeoniae Alba extract (45 g-herb/kg); 2) RB group, were oral administration of Radix Bupleuri extract (45 g-herb/kg); 3) RB-RPA group, were oral administration of powder mixture of Radix Bupleuri and Radix Paeoniae Alba extracts (containing 45 g-herb/kg Radix Bupleuri and 45 g-herb/kg Radix Paeoniae Alba). […] Each group received intragastric administration with a volume of 10 ml/kg (rat body weight). […] All rats were free to access the water during the experiment. The blood samples at each time point were collected from seven rats. The blood samples were centrifuged at 4,000 rpm for 10 min and frozen at -80°C until analysis. Using a Thermo-Fisher Dionex UltiMate 3000 UHPLC system coupled with a Q Exactive Orbitrap-MS (Thermo-Fisher, United States) and Xcalibur workstation (Thermo-Fisher Scientific Inc.,Waltham, MA, United States) to acquire UPLC-HRMS raw data. Chromatographic separation of herb extracts and plasma samples was performed on an Acquity UPLC HSS T3 column (2.1 mm × 100 mm, 1.8 μm) maintained at 37°C. The flow rate was 0.2 ml/min and the injection volume was 5 μL. […] Mass spectrometry detection conditions were set as follows: the MS data were acquired under positive and negative ionization modes via heated electrospray ionization (HESI) source. […] The Q Exactive Orbitrap-MS has a fast positive and negative ion switching function, which could switch between positive-negative ion modes during the analysis of the same sample. So, we applied the method of switching ion modes in the detection process to quantify all analytes better. […] UPLC/MS/MS calibration and quantitation data were processed with Xcalibur workstation (Thermo-Fisher Scientific Inc., Waltham, MA, United States). For the eight components with standard reference, calculating their concentrations from the standard curves. For the other 30 components without standard reference, their concentrations were analyzed following the regression equations of homologous compounds ([Qiao et al., 2012]): paeoniflorin for P1 and M1 to M3; methylgallate for M4 to M10; saikosaponin […] and […]; saikosaponin […]; saikosaponin […]; saikosaponin B2 for P11 and M25 to […].

[1] = oral administration of mixed extracts RB-RPA
[2] = oral administration of single extract RPA
[3] = oral RB single extract 45 g-herb/kg
[4] = oral RB-RPA mixed extracts (45 g-herb/kg RB + 45 g-herb/kg RPA)

Structure (SMILES) | AUC0-t [1] | AUC0-∞ [1] | Cmax [1] | t1/2 [1] | tmax [1] | AUC0-t [2] | AUC0-∞ [2] | Cmax [2] | t1/2 [2] | tmax [2] | AUC0-t [3] | AUC0-∞ [3] | Cmax [3] | t1/2 [3] | tmax [3] | AUC0-t [4] | AUC0-∞ [4] | Cmax [4] | t1/2 [4] | tmax [4]
C[C@@]12C[C@@]3(O)O[C@@H](O1)[C@]1(CO)[C@H]3C[C@@]12O[C@@H]1O[C@H](CO)[C@@H](O)[C@H](O)[C@H]1O [Desbenzoylpaeoniflorin] | 27.39 ± 15.84 ng·h/mL | 28.66 ± 16.13 ng·h/mL | 10.12 ± 5.32 ng/mL | 2.17 ± 0.95 h | 0.58 ± 0.13 h | 18.66 ± 9.99 ng·h/mL | 20.34 ± 9.44 ng·h/mL | 8.76 ± 4.90 ng/mL | 2.72 ± 1.32 h | 0.75 ± 0.16 h |  |  |  |  |  |  |  |  |  | 
C[C@H]1O[C@@H](O[C@@H]2CC[C@@]3(C)[C@@H](CC[C@]4(C)[C@@H]3C=C[C@]35OC[C@@]6(CCC(C)(C)C[C@H]63)[C@@H](O)C[C@]54C)[C@@]2(C)CO)[C@H](O)[C@@H](O)[C@H]1O [Prosaikogenin G] |  |  |  |  |  |  |  |  |  |  | 10.10 ± 4.96 ng·h/mL | 11.33 ± 5.65 ng·h/mL | 5.81 ± 2.73 ng/mL | 1.48 ± 0.50 h | 0.79 ± 0.10 h | 11.50 ± 5.88 ng·h/mL | 12.94 ± 6.57 ng·h/mL | 6.08 ± 3.17 ng/mL | 1.48 ± 0.63 h | 0.75 ± 0.16 h
CC1(C)CC[C@]23CO[C@@]4(C=C[C@@H]5[C@@]6(C)CC[C@H](O)[C@@](C)(CO)[C@@H]6CC[C@@]5(C)[C@]4(C)C[C@@H]2O)[C@@H]3C1 [Saikogenin F] |  |  |  |  |  |  |  |  |  |  | 156.14 ± 83.93 ng·h/mL | 159.01 ± 82.32 ng·h/mL | 30.25 ± 13.93 ng/mL | 4.01 ± 1.88 h | 1.04 ± 0.25 h | 301.08 ± 199.77 ng·h/mL | 347.02 ± 174.43 ng·h/mL | 34.09 ± 17.25 ng/mL | 6.80 ± 2.11 h | 1.17 ± 0.26 h
CC(=O)OC[C@H]1O[C@@H](O[C@H]2[C@@H](O)[C@@H](C)O[C@@H](O[C@H]3CC[C@@]4(C)[C@@H](CC[C@]5(C)[C@@H]4C=CC46OCC7(CCC(C)(C)C[C@H]74)[C@H](O)C[C@]65C)[C@]3(C)CO)[C@@H]2O)[C@H](O)[C@@H](O)[C@@H]1O (some centres unmarked) [Acetyl-saikosaponin D] |  |  |  |  |  |  |  |  |  |  | 23.58 ± 6.77 ng·h/mL | 25.54 ± 7.23 ng·h/mL | 19.20 ± 6.70 ng/mL | 2.68 ± 0.71 h | 0.50 ± 0.27 h | 38.05 ± 21.32 ng·h/mL | 43.25 ± 27.08 ng·h/mL | 20.31 ± 12.42 ng/mL | 4.39 ± 1.55 h | 0.50 ± 0.27 h
CC1(C)CC[C@@]2(CO)C(=C3C=C[C@@H]4[C@@]5(C)CC[C@H](O)[C@@](C)(CO)[C@@H]5CC[C@@]4(C)[C@]3(C)C[C@H]2O)C1 [Saikogenin D] |  |  |  |  |  |  |  |  |  |  | 81.39 ± 36.37 ng·h/mL | 85.33 ± 40.21 ng·h/mL | 16.51 ± 8.25 ng/mL | 5.10 ± 1.21 h | 1.17 ± 0.26 h | 131.78 ± 59.75 ng·h/mL | 141.32 ± 65.28 ng·h/mL | 19.75 ± 10.49 ng/mL | 5.78 ± 2.37 h | 0.92 ± 0.20 h
